Data set [1] has as its target T1, human VPAC2 (Homo sapiens, UniProt P41587).
T1 construct: expressed in transfected cells
T1 sequence (P41587 24-438): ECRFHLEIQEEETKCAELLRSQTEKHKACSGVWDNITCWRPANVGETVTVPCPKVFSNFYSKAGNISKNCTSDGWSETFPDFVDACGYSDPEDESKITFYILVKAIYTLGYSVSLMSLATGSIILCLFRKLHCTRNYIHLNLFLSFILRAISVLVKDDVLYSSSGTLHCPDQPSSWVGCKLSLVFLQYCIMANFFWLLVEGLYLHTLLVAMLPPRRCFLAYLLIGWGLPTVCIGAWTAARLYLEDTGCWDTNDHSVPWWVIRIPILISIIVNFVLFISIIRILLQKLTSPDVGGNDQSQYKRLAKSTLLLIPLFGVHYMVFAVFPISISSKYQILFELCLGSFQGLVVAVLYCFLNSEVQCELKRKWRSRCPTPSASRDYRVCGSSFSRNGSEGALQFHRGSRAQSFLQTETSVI
Put plainly: Filter binding assay, membranes of stable VPAC2 cell line, 125I-labeled VIP tracer (Table 2). To be noted: read-out: Human VPAC2 Receptor Binding. The method in brief: (§1)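 Radioligand displacement was measured with 2.5 μg membrane protein per well and roughly 40000 cpm of iodinated tracer. After a 1-hour incubation, bound and free label were separated on BSA-blocked glass-fibre filters and quantified by scintillation.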

In data set [2] the target is T1, human VPAC2. The data set can be described thus: DiscoveRx cAMP in vitro potency, CHO-S cell line stably expressing human VPAC2 receptor. As to conditions: cAMP generation; mean of two independent runs. Format: cell-based. The protocol: (§2) Also, the cells are washed twice. The cells are incubated in assay buffer plus IBMX for 15 minutes at room temperature. […] The stimuli are present for 30 minutes. Then, the assay buffer is gently removed. […] At day 3, the assay described above for the VPAC2 receptor cell line is performed.

For data set [3], the target named is T2, human VPAC1 (Homo sapiens, UniProt P32241).
T2 sequence (P32241 31-457): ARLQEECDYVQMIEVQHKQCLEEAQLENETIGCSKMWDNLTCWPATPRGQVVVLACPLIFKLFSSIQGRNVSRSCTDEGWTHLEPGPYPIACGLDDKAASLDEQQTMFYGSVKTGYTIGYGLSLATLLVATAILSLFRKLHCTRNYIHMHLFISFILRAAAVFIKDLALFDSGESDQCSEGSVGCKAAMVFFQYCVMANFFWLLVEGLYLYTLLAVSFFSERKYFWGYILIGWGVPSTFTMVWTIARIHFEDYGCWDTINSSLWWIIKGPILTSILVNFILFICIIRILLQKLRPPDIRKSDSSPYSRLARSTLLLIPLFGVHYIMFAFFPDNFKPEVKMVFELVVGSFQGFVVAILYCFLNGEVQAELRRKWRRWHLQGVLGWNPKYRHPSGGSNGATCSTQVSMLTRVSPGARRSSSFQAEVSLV
Put plainly: Filter binding assay, membranes of cells transiently transfected with human VPAC1, 125I-labeled VIP tracer (Table 2). Set-up: expressed in transfected cells. To be noted: read-out: Human VPAC1 Receptor Binding. The method in brief:
as §1

The target of the next data set is T3, human PAC1 (Homo sapiens, UniProt P41586).
T3 sequence (P41586 21-468): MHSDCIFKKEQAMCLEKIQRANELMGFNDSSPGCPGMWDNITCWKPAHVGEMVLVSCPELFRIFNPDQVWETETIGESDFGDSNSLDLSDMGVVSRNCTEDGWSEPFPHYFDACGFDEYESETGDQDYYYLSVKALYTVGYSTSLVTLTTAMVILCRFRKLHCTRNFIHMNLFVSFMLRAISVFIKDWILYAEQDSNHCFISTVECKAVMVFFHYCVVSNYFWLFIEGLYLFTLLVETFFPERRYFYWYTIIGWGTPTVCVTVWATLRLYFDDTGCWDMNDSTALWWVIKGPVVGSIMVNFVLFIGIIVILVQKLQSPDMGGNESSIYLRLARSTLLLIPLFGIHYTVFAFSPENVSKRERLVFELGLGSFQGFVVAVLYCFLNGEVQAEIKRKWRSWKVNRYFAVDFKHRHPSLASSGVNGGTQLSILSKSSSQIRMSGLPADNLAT
The data set can be described thus: DiscoveRx cAMP in vitro potency, CHO-PO cells transiently transfected with human PAC1 receptor. Format: cell-based. Also noted: expressed in transfected cells; host or cells: CHO-PO, transient (Lipofectamine). To be noted: cAMP generation; mean of two independent runs; read-out: Human PAC1 Receptor: DiscoveRx EC50. The protocol:
as §2

The target in a further data set is T4, DPP-IV (Sus scrofa, UniProt P22411).
T4 construct: purchased Sigma
Put plainly: DPP-IV HPLC assay: in vitro incubation with purified dipeptidyl-peptidase IV. Format: in vitro ADME, Porcine. The procedure: Part 1: Formulation of Selective VPAC2 Receptor Peptide Agonists: […]
Approximately 2 mg of lyophilized peptide is weighed and dissolved in approximately 1.6 mL de-ionized water. […] After incubation at room temperature for 30 minutes, 1/10th of the original volume 10×PBS is added. The pH is adjusted to between pH 7.2 and 7.6. The peptide solution is filtered through a 0.22 μm Millex-GV syringe filter (Millipore, Bedford Mass., USA). The peptide concentration is determined through absorption at 280 nm. The peptide concentration is then adjusted to 100 μM. The peptides are frozen at −20° C. for further use.
Part 2: In Vitro Incubation of Selective VPAC2 Receptor Peptide Agonists with Purified Dipeptidyl-Peptidase IV (DPP-IV):
The stability of selective VPAC2 receptor peptide agonists against proteolysis by DPP-IV is determined using 100 μL of a 100 μM peptide solution in 1×PBS. A 10 μL solution is removed and quenched with 40 μL of 0.1% trifluoroacetic acid (TFA)/20% acetonitrile (ACN). This solution (20 μL) is analyzed by reversed-phase HPLC. The reversed-phase analysis consists of a Zorbax 300SB-C8 column (3.5 micron, 4.6×50 mm, Alltech Associates, Inc., Deerfield Ill., USA) running a 15-40% B gradient over 15 minutes at 60° C. where A-buffer is 0.1% (v/v) TFA in water and B-buffer is 0.085% (v/v) TFA in ACN. The peak area is integrated. This peak area serves as an internal control as 100% intact peptide.
A 10 μL aliquot of a 1.12 mU/μL solution of DPP-IV (Sigma, St. Louis, La., USA) is added to 90 μL of a 100 μM solution of peptide, resulting in a substrate concentration of 90 μM peptide. The reaction mixture is then stored at 37° C. At various time-points, 10 μL of solution is removed, quenched with 40 μL 0.1% TFA/20% ACN, and analyzed by reversed-phase HPLC as described above. The remaining full length peptide concentration (nM) at each timepoint, except time=0, is calculated using following formula: [formula]
For the time=0 timepoint, the concentration (nM) is calculated using the following formula: [formula]

Data set [4] concerns the target T2, human VPAC1. Put plainly: DiscoveRx cAMP in vitro potency, CHO-PO cells transiently transfected with human VPAC1 receptor. To be noted: cAMP generation; mean of two independent runs; read-out: Human VPAC1 Receptor: DiscoveRx EC50. Format: cell-based. Set-up: expressed in transfected cells; host or cells: CHO-PO, transient (Lipofectamine). The procedure:
as §2

The subject of a further data set is Normal Wistar rats. The data set can be described thus: Intravenous glucose tolerance test (IVGTT). Format: in vivo, rat. To be noted: IVGTT, insulin. The procedure:
Intravenous glucose tolerance test (IVGTT): Normal Wistar rats are fasted overnight and are anesthetized prior to the experiment. A blood sampling catheter is inserted into the rats. The compound is given in the jugular vein. Blood samples are taken from the carotid artery. A blood sample is drawn immediately prior to the injection of glucose along with the compound. After the initial blood sample, glucose mixed with compound is injected intravenously (i.v.). A glucose challenge of 0.5 g/kg body weight is given, injecting a total of 1.5 mL vehicle with glucose and agonist per kg body weight. The peptide concentration vary to produce the desired dose in μg/kg. Blood samples are drawn at 2, 4, 6 and 10 minutes after giving glucose. The control group of animals receives the same vehicle along with glucose, but with no compound added. In some instances, a 30 minute post-glucose blood sample is drawn. Aprotinin is added to the blood sample (250 kIU/ml blood). The serum is then analyzed for glucose and insulin using standard methodologies.
The assay uses a formulated and calibrated peptide stock in PBS. Normally, this stock is a prediluted 100 μM stock. However, a more concentrated stock with approximately 1 mg agonist per mL is used. The specific concentration is always known. Variability in the maximal response is mostly due to variability in the vehicle dose.

Values joined by “and” are separate entries in the source; they are usually repeats but may differ in a detail not shown here. Identical values can stand only once. Where no end group is shown, it is not given here. [ ]: non-standard residue; d: D form.

The text below walks through data of patent publication US20080026996A1, “Selective Vpac2 Receptor Reptide Agonists” (ELI LILLY AND COMPANY, priority 2004, published 2008).

T4 sequence (P22411 whole entry): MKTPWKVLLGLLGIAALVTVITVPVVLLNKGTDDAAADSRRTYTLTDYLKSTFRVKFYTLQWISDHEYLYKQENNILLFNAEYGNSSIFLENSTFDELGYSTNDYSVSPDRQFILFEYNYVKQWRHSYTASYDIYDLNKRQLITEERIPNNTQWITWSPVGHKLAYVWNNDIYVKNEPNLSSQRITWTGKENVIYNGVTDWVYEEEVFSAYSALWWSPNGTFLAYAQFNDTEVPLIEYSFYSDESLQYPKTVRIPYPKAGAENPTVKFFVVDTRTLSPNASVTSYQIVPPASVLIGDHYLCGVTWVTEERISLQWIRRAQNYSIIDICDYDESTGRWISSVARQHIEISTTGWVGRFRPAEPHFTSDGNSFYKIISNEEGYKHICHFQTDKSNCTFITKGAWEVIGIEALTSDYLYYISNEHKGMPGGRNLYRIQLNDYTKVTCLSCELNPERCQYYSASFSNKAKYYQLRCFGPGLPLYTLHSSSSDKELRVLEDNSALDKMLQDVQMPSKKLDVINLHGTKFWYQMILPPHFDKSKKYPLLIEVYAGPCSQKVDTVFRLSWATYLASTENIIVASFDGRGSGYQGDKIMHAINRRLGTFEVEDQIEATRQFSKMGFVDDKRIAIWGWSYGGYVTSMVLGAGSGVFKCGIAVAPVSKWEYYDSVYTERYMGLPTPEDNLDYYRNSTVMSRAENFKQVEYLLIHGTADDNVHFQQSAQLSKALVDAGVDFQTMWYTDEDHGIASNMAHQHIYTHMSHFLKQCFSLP

Take “H-HSDAVFTDNYTRLRKQVAARKYLQSIKNKRYGGPSSGAPPPS [Agonist P20]”: the IC50 on human VPAC2 [1] was 2.5 nM; at human VPAC1 [3] it was 98.7 nM. The EC50 (in general, the midpoint of the concentration-response curve) at human VPAC2 [2] is 2.13 nM; on human PAC1, above 25 nM.
With “HSDIVFTDNYTRLRKQVAAKKYLQSIKNKRYGGPSSGAPPPS [Agonist P50]”, a half-maximal effect on human VPAC2 [2] (EC50) was put at 19.3 nM.
As to “H[dA]DAVFTDNYTRLRKQVAAKKYLQSIKNKRYGGPSSGAPPPS [VPAC2-P47]”, the “Concentration (nM) of Remaining Main Peak by RP-HPLC after Incubation of Peptide with Purified Porcine DPP-IV” value at DPP-IV (Time = 0 hours at 37° C.) stood at 9.0 nM; on DPP-IV (Time = 2 hours at 37° C.), 7.9 nM; at DPP-IV (Time = 6 hours at 37° C.), 6.1 nM; on DPP-IV (Time = 24 hours at 37° C.) it was 2.8 nM.
As to “VPAC2-P44 (HVDAVFTDNYTRLRKQVAAKKYLQSIKNKRYGGPSSGAPPPS; not fully specified (N-terminus))”, the “Concentration (nM) of Remaining Main Peak by RP-HPLC after Incubation of Peptide with Purified Porcine DPP-IV” value was 9.0 nM in the data set with DPP-IV (Time = 0 hours at 37° C.); 6.4 nM and 7.9 nM and 4.5 nM and 6.5 nM in the data set with DPP-IV (Time = 2 hours at 37° C.).
For “HSDAVFTDNYTRLRKQVAAKKYLQSIKNKIYGGPSSGAPPPS [Agonist P76]”, the EC50 at human VPAC1 [4] came to 0.8 nM.
Consider “HSDAVFTDNYTRAAAKVAAKKYLQSIKNKRYGGPSSGAPPPS [Agonist P88]”, for which the values for the IC50 on human VPAC2 [1] and at human VPAC1 [3] were 93.9 nM and 979 nM, respectively. At human VPAC2 [2], this substance came in with an EC50 above 1000 nM.
As to “HVDAVFTDNYTRLRKQVAAKKYLQSIKNKRYGGPSSGAPPPS [Agonist P44]”, the “% increase AUC: Dose = 0.1 μg/kg” value with Normal Wistar rats (0.1 μg/kg) stood at 19%. In the data set on Normal Wistar rats (10 μg/kg), the “% increase AUC: Dose = 10 μg/kg” value stood at 194%. At human VPAC2 [2], the 50% effective concentration (EC50) was determined as 0.92 nM.
For “H-HSDAVFTDNYTRFRKQVAAKKYLQSIKNKRYGGPSSGAPPPS [Agonist P26]”, the EC50 on human VPAC1 [4] was 0.9 nM.
With “H-HTDAVFTDNYTRLRKQVAAKKYLQSIKNKRYGGPSSGAPPPS [Agonist P45]”, the EC50 was found to be 11.6 nM at human VPAC2 [2] and 315 nM at human PAC1.
